In data set [1] the target is T1, NaV1.1 (Homo sapiens (Human), UniProt P35498). As to the kind of experiment: Electrophysiological Assay (EP), patch voltage clamp, NaV1.1.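 Further: sodium current block measured at ambient temperature, holding at fully inactivating potential, 20 ms repolarization to −150 mV before test pulse, versus 0.5% DMSO control currents.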 The class given is cell-based. As to conditions: HEK-293 cells, whole-cell patch clamp.
For data set [2], the target named is T2, NaV1.6 (Homo sapiens (Human), UniProt Q9UQD0). As to the kind of experiment: Electrophysiological Assay (EP), patch voltage clamp, NaV1.6.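 Further: sodium current recorded at ambient temperature, channels held inactivated then briefly repolarized to −150 mV for 20 ms before a test pulse, control currents in 0.5% DMSO.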 In kind it is cell-based. As to conditions: HEK-293 cells, whole-cell patch clamp. Background: In patch-clamp work, channel activity is measured electrically.
T2 sequence (Q9UQD0 whole entry): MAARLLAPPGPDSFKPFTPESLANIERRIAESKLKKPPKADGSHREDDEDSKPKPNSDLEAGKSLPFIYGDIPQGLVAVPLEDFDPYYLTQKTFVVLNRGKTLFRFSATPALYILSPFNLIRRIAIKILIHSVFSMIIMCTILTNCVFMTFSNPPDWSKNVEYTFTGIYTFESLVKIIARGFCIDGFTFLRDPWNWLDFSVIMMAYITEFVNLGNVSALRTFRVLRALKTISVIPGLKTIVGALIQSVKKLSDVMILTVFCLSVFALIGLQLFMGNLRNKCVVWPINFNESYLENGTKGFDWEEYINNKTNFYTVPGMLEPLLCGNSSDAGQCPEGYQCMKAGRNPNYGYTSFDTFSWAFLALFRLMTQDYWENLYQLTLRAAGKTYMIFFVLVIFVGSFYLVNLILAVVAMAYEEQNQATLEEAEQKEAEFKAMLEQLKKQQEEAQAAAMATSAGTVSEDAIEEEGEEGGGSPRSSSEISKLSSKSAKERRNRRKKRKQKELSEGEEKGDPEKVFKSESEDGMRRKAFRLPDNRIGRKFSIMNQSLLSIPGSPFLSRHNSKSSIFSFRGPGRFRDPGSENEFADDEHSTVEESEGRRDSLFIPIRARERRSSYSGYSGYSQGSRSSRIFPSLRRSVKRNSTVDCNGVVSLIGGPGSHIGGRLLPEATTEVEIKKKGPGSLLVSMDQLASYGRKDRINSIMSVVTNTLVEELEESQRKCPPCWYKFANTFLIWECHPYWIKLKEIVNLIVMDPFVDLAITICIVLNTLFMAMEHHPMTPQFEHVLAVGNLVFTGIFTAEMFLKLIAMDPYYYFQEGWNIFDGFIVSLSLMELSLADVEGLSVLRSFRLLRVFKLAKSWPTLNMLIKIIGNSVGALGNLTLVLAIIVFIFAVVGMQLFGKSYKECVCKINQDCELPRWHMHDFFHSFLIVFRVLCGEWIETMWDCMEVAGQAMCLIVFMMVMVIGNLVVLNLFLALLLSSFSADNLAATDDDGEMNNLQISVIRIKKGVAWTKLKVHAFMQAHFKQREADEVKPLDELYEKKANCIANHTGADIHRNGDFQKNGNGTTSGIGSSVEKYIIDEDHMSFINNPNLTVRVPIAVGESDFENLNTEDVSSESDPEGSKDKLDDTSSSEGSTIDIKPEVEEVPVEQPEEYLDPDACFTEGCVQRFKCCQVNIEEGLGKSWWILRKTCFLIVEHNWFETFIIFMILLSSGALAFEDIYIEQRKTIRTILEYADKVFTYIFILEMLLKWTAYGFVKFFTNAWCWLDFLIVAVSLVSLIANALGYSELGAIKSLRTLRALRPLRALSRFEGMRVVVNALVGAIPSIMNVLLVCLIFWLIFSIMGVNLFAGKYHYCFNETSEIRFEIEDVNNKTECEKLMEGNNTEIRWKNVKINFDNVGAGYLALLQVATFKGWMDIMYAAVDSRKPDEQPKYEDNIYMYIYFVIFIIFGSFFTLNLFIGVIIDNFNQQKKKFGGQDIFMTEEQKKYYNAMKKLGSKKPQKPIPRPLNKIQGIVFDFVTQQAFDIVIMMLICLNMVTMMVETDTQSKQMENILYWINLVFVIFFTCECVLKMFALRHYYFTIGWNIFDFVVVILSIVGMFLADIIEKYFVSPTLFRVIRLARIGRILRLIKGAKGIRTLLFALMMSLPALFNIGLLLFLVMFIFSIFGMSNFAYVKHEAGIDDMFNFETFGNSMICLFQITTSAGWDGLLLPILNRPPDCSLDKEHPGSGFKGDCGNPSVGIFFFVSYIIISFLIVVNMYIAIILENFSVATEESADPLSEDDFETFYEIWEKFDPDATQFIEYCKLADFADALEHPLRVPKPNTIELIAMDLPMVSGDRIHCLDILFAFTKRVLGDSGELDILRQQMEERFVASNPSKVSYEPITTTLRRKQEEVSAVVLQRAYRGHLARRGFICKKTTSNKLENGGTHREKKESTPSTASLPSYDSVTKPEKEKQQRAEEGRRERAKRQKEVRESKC
In data set [3] the target is T1, NaV1.1. As to the kind of experiment: Sodium Influx Assay (Flux), NaV1.1.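 Further: channels co-expressed with human β1 subunit and held open by modulators, cells exposed to compounds for one hour at room temperature, IC50 from percent inhibition of influx.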 As to conditions: Trex HEK293 cells, ANG2 dye, inactivated state. The class given is cell-based.
In data set [4] the target is T2, NaV1.6. The data set is described as follows: Sodium Influx Assay (Flux), NaV1.6.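 Further: Tetracycline-induced cells, compounds applied for one hour at room temperature with modulators holding channels open, IC50 from percent inhibition of sodium influx.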 As to conditions: Trex HEK293 cells, ANG2 dye, inactivated state. In kind it is cell-based.
The target of another data set is NaV1.5 (Homo sapiens (Human), UniProt Q14524). As to the kind of experiment: Sodium Influx Assay (Flux), NaV1.5. As to conditions: read-out: Flux NaV1.5 IC50; Trex HEK293 cells, ANG2 dye, inactivated state.
Sequence of NaV1.5 (Q14524 other isoform, or with tags, fused parts or gaps): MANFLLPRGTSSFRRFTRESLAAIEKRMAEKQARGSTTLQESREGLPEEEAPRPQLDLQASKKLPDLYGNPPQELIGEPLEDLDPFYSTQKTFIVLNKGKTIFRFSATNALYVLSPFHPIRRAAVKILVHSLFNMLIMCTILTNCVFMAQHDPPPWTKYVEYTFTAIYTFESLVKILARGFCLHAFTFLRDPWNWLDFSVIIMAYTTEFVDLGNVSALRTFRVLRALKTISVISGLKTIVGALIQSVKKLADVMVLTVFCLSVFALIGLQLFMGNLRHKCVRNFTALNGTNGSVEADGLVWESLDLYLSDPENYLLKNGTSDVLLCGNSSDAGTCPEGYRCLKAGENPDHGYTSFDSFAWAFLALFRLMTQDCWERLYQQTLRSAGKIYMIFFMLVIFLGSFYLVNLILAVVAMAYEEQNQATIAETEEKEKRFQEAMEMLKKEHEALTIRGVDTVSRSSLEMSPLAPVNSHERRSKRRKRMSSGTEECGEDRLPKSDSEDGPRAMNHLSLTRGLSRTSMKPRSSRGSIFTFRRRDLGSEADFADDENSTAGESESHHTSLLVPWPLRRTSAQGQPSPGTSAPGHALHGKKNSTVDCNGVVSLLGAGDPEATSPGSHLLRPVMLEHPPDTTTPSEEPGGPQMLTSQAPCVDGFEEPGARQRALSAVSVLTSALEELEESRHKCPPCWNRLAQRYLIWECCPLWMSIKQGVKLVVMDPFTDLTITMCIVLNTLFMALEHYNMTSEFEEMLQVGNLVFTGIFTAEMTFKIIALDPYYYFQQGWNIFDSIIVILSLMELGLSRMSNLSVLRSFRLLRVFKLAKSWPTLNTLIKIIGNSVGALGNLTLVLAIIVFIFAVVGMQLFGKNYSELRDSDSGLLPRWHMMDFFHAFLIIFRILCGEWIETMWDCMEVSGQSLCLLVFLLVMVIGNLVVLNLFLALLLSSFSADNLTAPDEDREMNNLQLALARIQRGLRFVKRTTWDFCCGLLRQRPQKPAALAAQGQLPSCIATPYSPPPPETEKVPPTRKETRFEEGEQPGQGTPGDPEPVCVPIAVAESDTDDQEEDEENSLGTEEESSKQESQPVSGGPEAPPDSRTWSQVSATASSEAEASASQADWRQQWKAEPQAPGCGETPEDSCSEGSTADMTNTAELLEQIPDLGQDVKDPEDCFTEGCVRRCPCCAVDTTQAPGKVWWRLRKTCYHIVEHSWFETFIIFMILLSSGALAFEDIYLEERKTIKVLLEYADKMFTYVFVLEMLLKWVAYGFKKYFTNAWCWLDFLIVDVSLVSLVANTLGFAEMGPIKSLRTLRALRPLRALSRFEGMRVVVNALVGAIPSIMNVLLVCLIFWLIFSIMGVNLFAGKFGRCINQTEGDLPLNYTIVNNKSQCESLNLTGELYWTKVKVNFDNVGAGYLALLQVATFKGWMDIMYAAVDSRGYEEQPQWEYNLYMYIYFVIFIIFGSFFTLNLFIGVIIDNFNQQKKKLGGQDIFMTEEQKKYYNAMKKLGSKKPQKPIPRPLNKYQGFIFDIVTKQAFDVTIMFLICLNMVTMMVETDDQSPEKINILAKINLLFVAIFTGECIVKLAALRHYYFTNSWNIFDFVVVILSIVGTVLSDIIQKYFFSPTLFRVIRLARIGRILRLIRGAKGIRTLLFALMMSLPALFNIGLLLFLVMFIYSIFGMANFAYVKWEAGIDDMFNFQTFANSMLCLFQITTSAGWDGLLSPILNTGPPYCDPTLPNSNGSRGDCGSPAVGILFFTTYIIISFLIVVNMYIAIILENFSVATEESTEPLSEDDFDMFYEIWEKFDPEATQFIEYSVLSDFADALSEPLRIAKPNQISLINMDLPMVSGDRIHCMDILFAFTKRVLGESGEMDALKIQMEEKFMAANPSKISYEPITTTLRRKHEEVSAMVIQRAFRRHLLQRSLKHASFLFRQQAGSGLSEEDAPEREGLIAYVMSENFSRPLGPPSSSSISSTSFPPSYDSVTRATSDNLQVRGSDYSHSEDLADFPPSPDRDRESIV

These results are taken from patent publication US11174268B2, “Benzenesulfonamide compouds and their use as therapeutic agents” (Xenon Pharmaceuticals Inc., priority 2016, dated 2021).

SMILES strings stand for the structures.

Regarding `C[C@H](Nc1cc(F)c(S(=O)(=O)Nc2nccs2)cc1F)c1ccccc1F` [Example 25, (S)-2,5-difluoro-4-((1-(2-fluorophenyl)ethyl)amino)-N-(thiazol-2-yl)benzenesulfonamide], the IC50 against NaV1.1 [1] amounted to 2.52 µM; against NaV1.6 [2] it was 0.057 µM; at NaV1.1 [3], 1.87 µM; against NaV1.6 [4] it was 0.175 µM; at NaV1.5 it was 10.3 µM.
For `C[C@H](Oc1cc(F)c(S(=O)(=O)Nc2nccs2)cc1F)c1ccccc1F` [Example 26, (S)-2,5-difluoro-4-(1-(2-fluorophenyl)ethoxy)-N-(thiazol-2-yl)benzenesulfonamide], the IC50 against NaV1.1 [1] is 6.75 µM; against NaV1.6 [2] it was 0.113 µM; on NaV1.1 [3], 4.74 µM; against NaV1.6 [4], 0.742 µM; at NaV1.5, 3.45 µM.
In the same order, the values of `C[C@H](Nc1cc(F)c(S(=O)(=O)Nc2nccs2)c(F)c1)c1ccccc1F` [Example 27, (S)-2,6-difluoro-4-((1-(2-fluorophenyl)ethyl)amino)-N-(thiazol-2-yl)benzenesulfonamide] are 0.112 µM, 0.012 µM, 0.476 µM, 0.069 µM and 8.49 µM.
With `CC[C@@H](Nc1ccc(S(=O)(=O)Nc2ncns2)cc1Cl)c1ccccc1` [Example 31, (R)-3-chloro-4-((1-phenylpropyl)amino)-N-(1,2,4-thiadiazol-5-yl)benzenesulfonamide], the IC50 at NaV1.1 [1] came to 10 µM; against NaV1.6 [2] it was 0.118 µM; at NaV1.1 [3], 6.17 µM; against NaV1.6 [4] it was 0.917 µM; on NaV1.5, 16.9 µM.
For `CC[C@@H](Nc1cc(F)c(S(=O)(=O)Nc2nccs2)cc1Cl)c1ccccc1` [Example 39, (R)-5-chloro-2-fluoro-4-((1-phenylpropyl)amino)-N-(thiazol-2-yl)benzenesulfonamide], the IC50 is 1.85 µM at NaV1.1 [1]; 0.285 µM on NaV1.6 [2]; 2.35 µM against NaV1.1 [3]; 0.791 µM on NaV1.6 [4]; 6.81 µM on NaV1.5.
Take `CC[C@H](Nc1cc(F)c(S(=O)(=O)Nc2nccs2)cc1Cl)c1ccccc1` [Example 40, (S)-5-chloro-2-fluoro-4-((1-phenylpropyl)amino)-N-(thiazol-2-yl)benzenesulfonamide]: the concentration for half-maximal inhibition (IC50) at NaV1.1 [1] turned out to be 0.182 µM; against NaV1.6 [2], 0.024 µM; against NaV1.1 [3], 0.637 µM; against NaV1.6 [4], 0.123 µM; on NaV1.5, 7.9 µM.
For `O=S(=O)(Nc1nccs1)c1cc(Cl)c(NC(CC(F)(F)F)c2ccccc2)cc1F` (centres unmarked) [Example 41, 5-chloro-2-fluoro-N-(thiazol-2-yl)-4-((3,3,3-trifluoro-1-phenylpropyl)amino)benzenesulfonamide], the IC50 stood at 0.031 µM against NaV1.1 [1]; 0.01 µM on NaV1.6 [2]; 0.364 µM against NaV1.1 [3]; 0.07 µM against NaV1.6 [4]; 11.8 µM on NaV1.5.
For the molecule `C[C@H](Nc1cc(F)c(S(=O)(=O)Nc2nccs2)cc1Cl)C1CCCCC1` [Example 42, (S)-5-chloro-4-((1-cyclohexylethyl)amino)-2-fluoro-N-(thiazol-2-yl)benzenesulfonamide], the IC50 on NaV1.1 [1] was determined as 6.77 µM; against NaV1.6 [2], 0.305 µM; against NaV1.1 [3], 5.65 µM; at NaV1.6 [4], 3.03 µM; at NaV1.5, 14.4 µM.
For `O=S(=O)(Nc1nccs1)c1cc(Cl)c(NC2(c3ccccc3)CC2)cc1F` [Example 43, 5-chloro-2-fluoro-4-((1-phenylcyclopropyl)amino)-N-(thiazol-2-yl)benzenesulfonamide] the same measures were 4.1 µM, 0.028 µM, 2.14 µM, 0.191 µM and 11.1 µM.
As to `O=S(=O)(Nc1nccs1)c1cc(Cl)c(NC2(c3ccc(F)cc3)CC2)cc1F` [Example 44, 5-chloro-2-fluoro-4-((1-(4-fluorophenyl)cyclopropyl)amino)-N-(thiazol-2-yl)benzenesulfonamide], the IC50 stood at 2.09 µM on NaV1.1 [1]; 0.13 µM at NaV1.6 [2]; 1.27 µM against NaV1.1 [3]; 0.347 µM at NaV1.6 [4]; 30 µM on NaV1.5.
`CC[C@H](Nc1cc(F)c(S(=O)(=O)Nc2nccs2)cc1Cl)c1ccccc1F` [Example 47, (S)-5-chloro-2-fluoro-4-((1-(2-fluorophenyl)propyl)amino)-N-(thiazol-2-yl)benzenesulfonamide]: the IC50 was found to be 0.114 µM at NaV1.1 [1]; 0.01 µM on NaV1.6 [2]; 0.816 µM against NaV1.1 [3]; 0.089 µM on NaV1.6 [4]; 6.52 µM at NaV1.5.
As to `C[C@H](Nc1cc(F)c(S(=O)(=O)Nc2nccs2)cc1Cl)c1cccc(F)c1` [Example 49, (S)-5-chloro-2-fluoro-4-((1-(3-fluorophenyl)ethyl)amino)-N-(thiazol-2-yl)benzenesulfonamide], the IC50 on NaV1.1 [1] worked out at 0.26 µM; at NaV1.6 [2], 0.019 µM; against NaV1.1 [3], 0.888 µM; against NaV1.6 [4] it was 0.232 µM; at NaV1.5, 4.75 µM.
For `CC[C@H](Nc1cc(F)c(S(=O)(=O)Nc2nccs2)cc1Cl)c1ccccc1C` [Example 54, (S)-5-chloro-2-fluoro-N-(thiazol-2-yl)-4-((1-(o-tolyl)propyl)amino)benzenesulfonamide], the IC50 at NaV1.1 [1] came out at 1.02 µM; against NaV1.6 [2], 0.025 µM; against NaV1.1 [3], 3.24 µM; on NaV1.6 [4], 0.265 µM; on NaV1.5 it was 13.5 µM.
With `CC(Cc1cccnc1)Nc1cc(F)c(S(=O)(=O)Nc2nccs2)cc1Cl` (centres unmarked) [Example 56, 5-chloro-2-fluoro-4-((1-(pyridin-3-yl)propan-2-yl)amino)-N-(thiazol-2-yl)benzenesulfonamide], the IC50 against NaV1.1 [1] amounted to 1.42 µM; against NaV1.6 [2], 0.292 µM; against NaV1.1 [3], 4.03 µM; against NaV1.6 [4], 0.949 µM; on NaV1.5 it was 30 µM.
Consider `O=S(=O)(Nc1cccc(F)n1)c1cc(Cl)c(NCc2cccc3ccncc23)cc1F` [Example 62, 5-chloro-2-fluoro-N-(6-fluoropyridin-2-yl)-4-((isoquinolin-8-ylmethyl)amino)benzenesulfonamide], for which the IC50 was determined as 3.1 µM against NaV1.1 [1]; 0.052 µM against NaV1.6 [2]; 17.3 µM against NaV1.1 [3]; 0.138 µM on NaV1.6 [4]; 30 µM on NaV1.5.
On to `CN(C)CC(Nc1cc(F)c(S(=O)(=O)Nc2nccs2)cc1Cl)c1ccccc1` (centres unmarked) [Example 63, 5-Chloro-4-((2-(dimethylamino)-1-phenylethyl)amino)-2-fluoro-N-(thiazol-2-yl)benzenesulfonamide 2,2,2-trifluoroacetate], for which the IC50 on NaV1.1 [1] stood at 10 µM; against NaV1.6 [2] it was 0.066 µM; against NaV1.1 [3] it was 14.1 µM; against NaV1.6 [4], 0.392 µM; on NaV1.5 it was 30 µM.
As for `CN(C)C[C@@H](Nc1cc(F)c(S(=O)(=O)Nc2nccs2)cc1Cl)c1ccccc1` [Example 64, (S)-5-chloro-4-((2-(dimethylamino)-1-phenylethyl)amino)-2-fluoro-N-(thiazol-2-yl)benzenesulfonamide 2,2,2-trifluoroacetate], the IC50 on NaV1.1 [1] amounted to 10 µM; at NaV1.6 [2], 0.085 µM; against NaV1.1 [3] it was 14.5 µM; against NaV1.6 [4] it was 0.197 µM; on NaV1.5, 30 µM.
For `CN(C)C[C@H](Nc1cc(F)c(S(=O)(=O)Nc2nccs2)cc1Cl)c1ccccc1` [Example 65, (R)-5-chloro-4-((2-(dimethylamino)-1-phenylethyl)amino)-2-fluoro-N-(thiazol-2-yl)benzenesulfonamide 2,2,2-trifluoroacetate] the same measures were 10 µM, 0.087 µM, 2.23 µM, 1.02 µM and 30 µM.
For `O=S(=O)(Nc1nccs1)c1cc(Cl)c(N[C@@H](CN2CCC2)c2ccccc2)cc1F` [Example 66, (R)-4-((2-(azetidin-1-yl)-1-phenylethyl)amino)-5-chloro-2-fluoro-N-(thiazol-2-yl)benzenesulfonamide 2,2,2-trifluoroacetate] the same measures were 10 µM, 1.11 µM, 0.908 µM, 1.01 µM and 30 µM.
In the same order, the values of `O=S(=O)(Nc1nccs1)c1cc(Cl)c(N[C@H](CN2CCC2)c2ccccc2)cc1F` [Example 67, (S)-4-((2-(azetidin-1-yl)-1-phenylethyl)amino)-5-chloro-2-fluoro-N-(thiazol-2-yl)benzenesulfonamide 2,2,2-trifluoroacetate] are 10 µM, 0.119 µM, 10.6 µM, 0.426 µM and 30 µM.
Take `O=S(=O)(Nc1nccs1)c1cc(Cl)c(N[C@H](CN2CCCC2)c2ccccc2)cc1F` [Example 70, (S)-5-chloro-2-fluoro-4-((1-phenyl-2-(pyrrolidin-1-yl)ethyl)amino)-N-(thiazol-2-yl)benzenesulfonamide]: the IC50 at NaV1.1 [1] worked out at 10 µM; at NaV1.6 [2], 0.036 µM; at NaV1.1 [3] it was 30 µM; on NaV1.6 [4] it was 0.181 µM; at NaV1.5 it was 30 µM.
Turning to `O=S(=O)(Nc1cccc(F)n1)c1cc(Cl)c(N[C@H](CN2CCCC2)c2ccccc2)cc1F` [Example 72, (S)-5-chloro-2-fluoro-N-(6-fluoropyridin-2-yl)-4-((1-phenyl-2-(pyrrolidin-1-yl)ethyl)amino)benzenesulfonamide 2,2,2-trifluoroacetate], the IC50 came out at 10 µM against NaV1.1 [1]; 0.955 µM against NaV1.6 [2]; 30 µM at NaV1.1 [3]; 7.11 µM on NaV1.6 [4]; 30 µM at NaV1.5.

As a reminder, the IC50 is the point on the concentration scale where inhibition reaches its midpoint.
